The values below are quoted from earlier work in patent US10888120B2, “Non-tobacco nicotine containing article” (Philip Morris Products S.A., priority 2013, dated 2021).

The structures appear in SMILES notation.

The conditions of this data set: "experienced" ENDS users (using ENDS for about 1 year).

Consider `CN1CCCC1c1cccnc1` (stereo not shown) [nicotine], for which the “plasma nicotine concentration (Cmax)” value is reported as 10.3 ng/mL.
